The record followed here is US11524945B2, “Compounds for treating ILK-mediated diseases” (The Cleveland Clinic Foundation, priority 2018, dated 2022).

Each structure is given as a SMILES string.

In series [1] the target is CYP 2E1 (Homo sapiens (Human), UniProt P05181). The series is described as follows: CYP inhibition in human liver microsomes, 2E1. Type of series: in vitro ADME.
Series [2] can be described thus: Stability in PBS at pH 7.4. The series is classed as physicochemical.
Series [3] deals with CYP 2C8 (Homo sapiens (Human), UniProt P10632). The series is described as follows: CYP inhibition in human liver microsomes, 2C8. Type of series: in vitro ADME. In general terms: Microsomes from liver hold many membrane-bound enzymes, among them those of drug oxidation.
The nature of series [4]: Oral toxicity in normal mice. Type of series: in vivo. The following applies: 25 to 510 mg/kg every day for two weeks, CMC/TWEEN 80.
For series [5], the target named is CYP 1A2 (Homo sapiens (Human), UniProt P05177). The series is described as follows: CYP inhibition in human liver microsomes, 1A2. The series is classed as in vitro ADME.
Series [6] has as its system Xenograft TNBC tumors (MDA-MB231). The series can be described thus: TNBC xenograft model (MDA-MB231). The series is classed as in vivo, mice. The following applies: 100 mg/kg five times/week. How it is done:
The next step was to evaluate the effect of Csbl-1 in mice bearing TNBC tumors. Given the fact that higher ILK expression level is correlated with poor outcome and reduced survival for TNBC patients (FIG. 6) and the above TNBC cell-based data, we decided to test whether Csbl-1 would be effective in suppressing the TNBC tumors in mice. […] Xenograft TNBC tumors were generated using MDA-MB231 on 8 mice. […] when the tumors were ˜3 mm, 4 mice were fed with Csbl-1 at 100 mg/kg five times/week and the other 4 mice (control, no drug) had no Csbl-1 treatment. […] We also examined the Csbl-1 effect on the mouse models with human derived patient TNBC tumor (PDX).

The target of series [7] is purified EGFR (Homo sapiens (Human), UniProt P00533). The series can be described thus: kinase assay using purified EGFR. The series is classed as biochemical.
Series [8] deals with MDA-MB-231 cells. The series can be described thus: Proliferation of triple negative breast cancer MDA-MB-231 cells. The series is classed as cell-based. How it is done: (§1) Cells were seeded at 20,000 cells/ml in 12 well plates in complete media. On day 3, the compounds were added at final 2 μM and the cells were counted every 3 days. […] Cells were seeded at 10,000 cells/ml in 12 well plates in complete media. The compounds were added at final 2 μM on day 2 and the cells were counted every 2 days.

The target in series [9] is ILK-PINCH-Parvin (IPP) complex (Homo sapiens (Human), UniProt Q13418). The series can be described thus: IPP-mediated actin bundling assay. The following applies: FIG. 4. The series is classed as biochemical. From the text:
Next, we set out to obtain in vitro evidence of Csbl-1. […] Mutation of L207 into bulky Trp in ILK abolished the MgATP binding to ILK and impaired the formation and morphology of actin bundles (Vaynberg et al., 2018). Using the same actin bundling assay, we examined the effect of Csbl-1 on the IPP-mediated actin bundling. […] In general, more bundles with smaller sizes were observed as a result of Csbl-1 interference. Csbl-1 would knock out MgATP at the ILK site and increase the local concentration of Mg^2+, which may impact the actin bundling process (Tang and Janmey, 1996, Vaynberg et al., 2018).

A short description of series [10]: Protein binding in human plasma. The series is classed as in vitro ADME.
Series [11] in a line: Log D in 1-Octanol/PBS pH 7.4. The series is classed as physicochemical.
Series [12] concerns MCF10a cells. The series is described as follows: Proliferation of normal breast MCF10a cells. The series is classed as cell-based. Conditions: compounds at final 2 μM, FIG. 5 panel A. How it is done: as §1

Sequence of CYP 1A2 (P05177 whole entry): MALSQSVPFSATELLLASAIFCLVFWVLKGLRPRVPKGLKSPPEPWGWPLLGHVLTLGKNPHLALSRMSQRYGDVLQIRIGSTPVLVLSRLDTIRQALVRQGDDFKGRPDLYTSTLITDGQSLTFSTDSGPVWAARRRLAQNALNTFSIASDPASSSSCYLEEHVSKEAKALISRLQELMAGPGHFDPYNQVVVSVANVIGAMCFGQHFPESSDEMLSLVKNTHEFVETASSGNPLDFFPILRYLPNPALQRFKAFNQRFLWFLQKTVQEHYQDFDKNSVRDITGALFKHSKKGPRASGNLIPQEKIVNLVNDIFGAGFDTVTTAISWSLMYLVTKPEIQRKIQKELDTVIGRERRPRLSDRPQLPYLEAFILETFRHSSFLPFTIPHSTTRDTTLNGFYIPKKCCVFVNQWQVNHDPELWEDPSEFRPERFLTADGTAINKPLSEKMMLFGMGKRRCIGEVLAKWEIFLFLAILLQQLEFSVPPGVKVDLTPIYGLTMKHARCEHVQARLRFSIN
Sequence of ILK-PINCH-Parvin (IPP) complex (Q13418 whole entry): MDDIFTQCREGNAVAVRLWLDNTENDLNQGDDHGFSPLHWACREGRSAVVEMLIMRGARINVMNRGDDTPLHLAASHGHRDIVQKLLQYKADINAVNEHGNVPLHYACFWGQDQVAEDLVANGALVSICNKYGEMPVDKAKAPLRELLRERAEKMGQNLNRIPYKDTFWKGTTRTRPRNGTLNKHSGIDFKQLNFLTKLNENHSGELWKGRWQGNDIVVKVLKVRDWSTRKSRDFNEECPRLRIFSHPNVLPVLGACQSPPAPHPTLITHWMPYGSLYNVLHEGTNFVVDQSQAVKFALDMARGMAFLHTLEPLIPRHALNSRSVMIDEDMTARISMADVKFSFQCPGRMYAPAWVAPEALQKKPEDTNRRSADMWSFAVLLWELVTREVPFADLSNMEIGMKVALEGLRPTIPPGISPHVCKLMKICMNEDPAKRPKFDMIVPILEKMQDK
Sequence of ILK-PINCH-Parvin (IPP) complex (P48059 whole entry partner): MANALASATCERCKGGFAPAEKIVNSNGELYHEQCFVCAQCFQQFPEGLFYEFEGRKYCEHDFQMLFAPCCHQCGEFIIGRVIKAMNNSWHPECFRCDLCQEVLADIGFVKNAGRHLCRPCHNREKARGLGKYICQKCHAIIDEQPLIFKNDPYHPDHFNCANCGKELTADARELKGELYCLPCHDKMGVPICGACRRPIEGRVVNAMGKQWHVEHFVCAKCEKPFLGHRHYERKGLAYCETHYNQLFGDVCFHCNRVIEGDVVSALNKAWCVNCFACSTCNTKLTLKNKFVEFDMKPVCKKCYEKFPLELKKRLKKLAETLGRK
Sequence of ILK-PINCH-Parvin (IPP) complex (Q9NVD7 whole entry partner): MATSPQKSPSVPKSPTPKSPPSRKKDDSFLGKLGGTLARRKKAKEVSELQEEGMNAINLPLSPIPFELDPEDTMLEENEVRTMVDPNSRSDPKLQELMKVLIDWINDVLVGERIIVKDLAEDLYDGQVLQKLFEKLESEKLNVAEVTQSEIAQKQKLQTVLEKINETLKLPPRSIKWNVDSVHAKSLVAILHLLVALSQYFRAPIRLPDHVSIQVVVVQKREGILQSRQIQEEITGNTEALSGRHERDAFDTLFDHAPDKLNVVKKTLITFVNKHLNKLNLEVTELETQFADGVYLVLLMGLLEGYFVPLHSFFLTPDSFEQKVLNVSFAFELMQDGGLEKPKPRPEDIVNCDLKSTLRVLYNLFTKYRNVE
Sequence of CYP 2C8 (P10632 whole entry): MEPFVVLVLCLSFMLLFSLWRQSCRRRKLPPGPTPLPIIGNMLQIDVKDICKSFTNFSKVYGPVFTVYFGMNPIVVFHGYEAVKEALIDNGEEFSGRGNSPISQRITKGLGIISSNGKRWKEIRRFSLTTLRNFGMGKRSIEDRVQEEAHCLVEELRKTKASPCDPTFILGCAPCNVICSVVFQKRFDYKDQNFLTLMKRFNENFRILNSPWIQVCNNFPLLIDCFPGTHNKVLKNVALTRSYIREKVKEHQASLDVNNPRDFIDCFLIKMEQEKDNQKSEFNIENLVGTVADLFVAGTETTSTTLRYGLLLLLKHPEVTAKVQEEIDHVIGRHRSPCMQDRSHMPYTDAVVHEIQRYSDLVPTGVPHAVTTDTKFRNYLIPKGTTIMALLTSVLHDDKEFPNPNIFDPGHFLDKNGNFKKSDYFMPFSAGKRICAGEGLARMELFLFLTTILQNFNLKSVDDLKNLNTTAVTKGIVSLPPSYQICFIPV
Sequence of CYP 2E1 (P05181 whole entry): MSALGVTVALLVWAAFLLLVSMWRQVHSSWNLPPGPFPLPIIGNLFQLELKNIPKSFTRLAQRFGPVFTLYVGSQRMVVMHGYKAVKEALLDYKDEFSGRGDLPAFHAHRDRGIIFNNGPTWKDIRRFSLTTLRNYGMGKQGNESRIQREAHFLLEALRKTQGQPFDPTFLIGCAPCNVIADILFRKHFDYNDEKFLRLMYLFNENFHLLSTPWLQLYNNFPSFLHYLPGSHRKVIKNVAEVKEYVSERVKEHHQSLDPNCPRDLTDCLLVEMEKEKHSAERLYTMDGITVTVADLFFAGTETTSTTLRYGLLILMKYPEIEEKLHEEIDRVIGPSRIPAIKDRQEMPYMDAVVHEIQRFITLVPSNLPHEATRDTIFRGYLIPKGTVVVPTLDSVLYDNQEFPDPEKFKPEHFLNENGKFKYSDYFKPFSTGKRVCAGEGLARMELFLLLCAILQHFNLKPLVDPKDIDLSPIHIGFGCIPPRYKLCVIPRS
Sequence of purified EGFR (P00533 25-1210): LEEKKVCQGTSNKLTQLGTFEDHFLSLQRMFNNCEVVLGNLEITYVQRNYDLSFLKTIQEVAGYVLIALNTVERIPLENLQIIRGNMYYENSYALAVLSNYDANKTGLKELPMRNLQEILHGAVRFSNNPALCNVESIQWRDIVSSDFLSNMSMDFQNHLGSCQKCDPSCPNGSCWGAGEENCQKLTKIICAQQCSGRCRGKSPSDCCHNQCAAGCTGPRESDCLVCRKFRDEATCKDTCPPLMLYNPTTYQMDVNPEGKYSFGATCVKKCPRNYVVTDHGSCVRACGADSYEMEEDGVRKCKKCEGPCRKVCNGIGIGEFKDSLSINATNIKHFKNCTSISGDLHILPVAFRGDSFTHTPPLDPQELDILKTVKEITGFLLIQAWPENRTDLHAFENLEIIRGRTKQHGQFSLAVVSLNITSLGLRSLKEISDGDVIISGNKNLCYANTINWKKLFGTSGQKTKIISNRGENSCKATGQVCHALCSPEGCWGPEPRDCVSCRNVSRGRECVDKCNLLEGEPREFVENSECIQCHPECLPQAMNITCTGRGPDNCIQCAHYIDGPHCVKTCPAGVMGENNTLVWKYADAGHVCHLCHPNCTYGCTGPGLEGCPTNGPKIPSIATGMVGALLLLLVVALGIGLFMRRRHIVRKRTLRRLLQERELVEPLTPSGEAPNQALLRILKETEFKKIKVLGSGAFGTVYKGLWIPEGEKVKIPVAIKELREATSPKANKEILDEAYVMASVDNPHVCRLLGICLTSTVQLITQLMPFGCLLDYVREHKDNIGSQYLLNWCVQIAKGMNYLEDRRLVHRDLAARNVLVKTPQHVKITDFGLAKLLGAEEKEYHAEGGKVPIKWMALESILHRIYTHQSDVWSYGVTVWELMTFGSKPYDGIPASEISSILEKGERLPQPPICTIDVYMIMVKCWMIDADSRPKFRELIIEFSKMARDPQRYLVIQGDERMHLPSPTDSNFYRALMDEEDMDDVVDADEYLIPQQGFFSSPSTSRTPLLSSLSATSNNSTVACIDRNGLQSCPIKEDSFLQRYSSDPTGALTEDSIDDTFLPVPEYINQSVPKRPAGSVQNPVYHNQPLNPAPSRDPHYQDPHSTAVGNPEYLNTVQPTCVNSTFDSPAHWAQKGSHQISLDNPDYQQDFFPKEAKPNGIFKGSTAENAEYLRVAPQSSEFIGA

For `C#Cc1cc(Nc2ncnc3cc(OCCOC)ccc23)cc(OCCOCC)c1` [Compound 1], the IC50 (as a rule, the midpoint of a concentration-inhibition curve) in series [1] is above 50 µM; in series [3], 3.24 µM; in [5], 33.3 µM; in series [7] it was 77.2 µM; in [8] (Homo sapiens, MDA-MB-231, read-out: IC50 on MDA-MB-231), around 0.19 µM. In addition, the “Remaining Percentage (%)” value in series [2] (PBS pH 7.4, 0 min) is listed as 100.00%; in series [2] (PBS pH 7.4, 30 min), 102.02%; in [2] (PBS pH 7.4, 60 min) it was 105.41%; in series [2] (PBS pH 7.4, 120 min) it was 103.04%; in series [2] (PBS pH 7.4, 180 min) it was 104.93%; in [2] (PBS pH 7.4, 240 min), 99.54%. For the same molecule, in [4], the “toxic symptoms in normal mice” value is “no toxic symptoms”. In addition, the “weight difference vs control mice” value in series [6] was “no significant weight difference”. Also, the “effect on proliferation of MDA-MB-231 cells” value in series [8] (compounds at final 2 μM, FIG. 5 panel B) is reported as “substantially inhibited the proliferation”. Also, in series [9], the “effect on IPP-induced actin bundles” value is “substantial change of IPP-induced actin bundles”. Further, the recovery in [10] turned out to be 98.8%. In addition, the fraction unbound in series [10] (read-out: % Bound (converted)) was 0.0303. In addition, the log distribution coefficient (logD) (as a rule, the decadic logarithm of the distribution of all forms, ionised or not, between an organic phase and buffer at a given pH) in series [11] amounted to 3.61. In addition, the “effect on proliferation of MCF10a cells” value in series [12] is “little effect”.
